The source made the active and inactive calls.

Data set [1] deals with G-protein coupled receptor 55 (Homo sapiens, UniProt Q9Y2T6). Nature of the data set: selective activators of receptor GPR55 – imaging, U2OS cells, beta-arrestin-GFP redistribution, primary screen (AID 1961). Format: functional.
Data set [2] concerns the target T1, Histone-lysine N-methyltransferase NSD2 (Homo sapiens, UniProt O96028).
T1 sequence (O96028 whole entry): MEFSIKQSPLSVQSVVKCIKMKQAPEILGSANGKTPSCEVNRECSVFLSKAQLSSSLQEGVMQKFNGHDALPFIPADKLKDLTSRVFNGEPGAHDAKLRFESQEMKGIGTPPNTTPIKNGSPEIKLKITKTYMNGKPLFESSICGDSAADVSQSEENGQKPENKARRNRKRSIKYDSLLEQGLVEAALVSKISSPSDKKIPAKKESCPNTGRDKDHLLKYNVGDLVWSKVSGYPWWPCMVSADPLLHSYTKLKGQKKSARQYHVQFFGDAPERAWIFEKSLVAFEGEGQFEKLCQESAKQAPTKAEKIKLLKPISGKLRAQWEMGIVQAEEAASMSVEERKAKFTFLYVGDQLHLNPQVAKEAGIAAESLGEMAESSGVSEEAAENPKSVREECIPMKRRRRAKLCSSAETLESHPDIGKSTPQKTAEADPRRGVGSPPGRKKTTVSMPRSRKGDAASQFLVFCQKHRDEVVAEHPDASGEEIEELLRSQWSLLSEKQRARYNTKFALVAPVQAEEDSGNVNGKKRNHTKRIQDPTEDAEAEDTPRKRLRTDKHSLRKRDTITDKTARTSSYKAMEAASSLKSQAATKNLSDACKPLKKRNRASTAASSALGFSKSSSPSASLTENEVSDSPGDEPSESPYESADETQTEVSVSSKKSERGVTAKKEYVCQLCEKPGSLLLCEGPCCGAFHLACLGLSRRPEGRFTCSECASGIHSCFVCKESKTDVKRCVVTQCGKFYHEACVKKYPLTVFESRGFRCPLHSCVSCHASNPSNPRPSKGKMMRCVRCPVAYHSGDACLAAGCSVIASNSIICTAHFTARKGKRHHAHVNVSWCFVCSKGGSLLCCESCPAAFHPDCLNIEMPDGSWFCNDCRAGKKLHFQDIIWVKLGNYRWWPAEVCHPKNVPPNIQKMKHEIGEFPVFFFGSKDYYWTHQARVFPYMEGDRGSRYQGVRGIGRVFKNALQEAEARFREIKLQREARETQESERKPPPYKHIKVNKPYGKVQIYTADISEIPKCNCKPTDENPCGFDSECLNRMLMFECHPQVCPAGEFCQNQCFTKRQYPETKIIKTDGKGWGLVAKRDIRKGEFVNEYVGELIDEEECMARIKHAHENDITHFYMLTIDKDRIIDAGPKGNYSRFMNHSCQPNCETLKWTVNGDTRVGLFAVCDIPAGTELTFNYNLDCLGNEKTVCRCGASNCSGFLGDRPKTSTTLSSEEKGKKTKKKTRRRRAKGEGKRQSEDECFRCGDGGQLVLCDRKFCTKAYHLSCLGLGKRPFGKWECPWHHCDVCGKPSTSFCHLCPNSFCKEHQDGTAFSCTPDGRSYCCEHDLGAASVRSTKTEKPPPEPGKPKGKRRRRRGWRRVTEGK
Type of data set: biochemical.

A further data set has as its target T2, Cytochrome P450 1A2 (Homo sapiens, UniProt P05177).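 Note: PubChem cytochrome P450 panel assay, CYP1A2 panel member.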
T2 sequence (P05177 whole entry): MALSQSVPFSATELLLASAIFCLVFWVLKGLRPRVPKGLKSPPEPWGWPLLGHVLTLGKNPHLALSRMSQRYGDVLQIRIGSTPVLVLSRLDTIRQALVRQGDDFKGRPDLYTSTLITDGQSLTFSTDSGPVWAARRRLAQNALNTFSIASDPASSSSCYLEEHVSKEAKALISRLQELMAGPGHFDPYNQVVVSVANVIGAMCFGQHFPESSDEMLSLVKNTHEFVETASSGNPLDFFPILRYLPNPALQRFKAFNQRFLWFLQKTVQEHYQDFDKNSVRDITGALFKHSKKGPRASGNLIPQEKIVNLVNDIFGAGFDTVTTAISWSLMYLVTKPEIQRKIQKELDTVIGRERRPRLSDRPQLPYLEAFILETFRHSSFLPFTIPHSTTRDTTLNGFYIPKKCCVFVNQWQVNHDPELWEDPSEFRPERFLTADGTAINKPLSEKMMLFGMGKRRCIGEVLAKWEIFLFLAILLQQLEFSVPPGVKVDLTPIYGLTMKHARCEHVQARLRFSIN

A further data set has as its target Cytochrome P450 2C19 (Homo sapiens, UniProt P33261). Nature of the data set: Cytochrome panel assay with activity outcomes. Panel member name: p450-cyp2c19 Compounds with AC50 equal or less than 10 uM are considered active. Format: functional.
Data set [3] has as its target T3, Cytochrome P450 2C9 (Homo sapiens, UniProt P11712).
The target of a further data set is Cytochrome P450 3A4 (Homo sapiens, UniProt P08684).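 Note: CYP3A4 tested as one member of a cytochrome P450 panel screen.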
Cytochrome P450 3A4, sequence (P08684 whole entry): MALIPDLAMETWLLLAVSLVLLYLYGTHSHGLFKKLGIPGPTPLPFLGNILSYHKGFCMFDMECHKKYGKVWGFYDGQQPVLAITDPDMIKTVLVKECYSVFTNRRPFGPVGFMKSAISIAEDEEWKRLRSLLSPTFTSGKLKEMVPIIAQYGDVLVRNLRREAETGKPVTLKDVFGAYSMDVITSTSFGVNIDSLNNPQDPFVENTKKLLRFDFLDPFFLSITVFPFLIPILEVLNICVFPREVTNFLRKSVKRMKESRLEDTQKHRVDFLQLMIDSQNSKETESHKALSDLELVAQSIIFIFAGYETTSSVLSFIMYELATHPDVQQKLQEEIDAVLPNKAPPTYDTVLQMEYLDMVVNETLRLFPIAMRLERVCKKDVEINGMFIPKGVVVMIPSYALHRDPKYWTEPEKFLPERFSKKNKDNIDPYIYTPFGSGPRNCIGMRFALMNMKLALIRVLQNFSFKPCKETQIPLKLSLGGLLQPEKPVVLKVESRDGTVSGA
The nature of data set [4]: viability of PTEN-deleted HCT116 cells – cell-based, HCT116 PTEN knockout, dose response (AID 1047).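 Note: HCT116 colon tumor cells with PTEN knocked out; cells exposed to compound for 60 hours before readout; potency for loss of cell viability measured by luminescence.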 Type of data set: functional.
Data set [5] concerns the target T3, Cytochrome P450 2C9. The source holds these as a separate data set.
Another data set addresses Cytochrome P450 2D6 (Homo sapiens, UniProt P10635).
Data set [6] can be described thus: viability of HCT116 lacking mutant beta-catenin – cell-based, human colon tumor, dose response (AID 1045).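 Note: HCT116 colon tumor cells with beta catenin knocked out; cells exposed to compound for 60 hours.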 Type of data set: functional.
A short description of data set [7]: HEK-293T cell viability reduction – luminescence, B-cell screen hits, cytotoxicity control for BCR NF-kB inhibitor project, dose response (AID 489021).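 Note: HEK-293T cells carrying an NF-kB luciferase reporter; cells exposed to compound for about 14 hours before viability readout.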 Format: functional, cell-based.
Data set [8] deals with T4, Calpain-2 catalytic subunit (Sus scrofa, UniProt P43367).
T4 sequence (P43367 whole entry): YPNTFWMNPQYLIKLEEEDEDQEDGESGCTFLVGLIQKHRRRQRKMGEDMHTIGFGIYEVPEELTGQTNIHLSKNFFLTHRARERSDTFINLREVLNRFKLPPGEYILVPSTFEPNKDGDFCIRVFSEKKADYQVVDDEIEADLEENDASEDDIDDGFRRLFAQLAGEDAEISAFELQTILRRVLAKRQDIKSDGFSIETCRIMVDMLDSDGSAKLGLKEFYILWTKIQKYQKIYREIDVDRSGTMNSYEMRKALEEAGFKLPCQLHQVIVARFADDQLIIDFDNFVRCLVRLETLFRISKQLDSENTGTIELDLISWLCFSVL
Nature of the data set: m-calpain protease blockers, concentration series – biochemical, fluorogenic peptide substrate, dose response (AID 1420). Type of data set: functional.

Another data set concerns INS1. Nature of the data set: INS-1E survival protection against cytokine death – cell-based, luminescence, retest, dose response (AID 449756).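 Note: cell death triggered by IL-1 beta plus TNF-alpha plus IFN-gamma mixture; protective hits raise ATP signal compared with cytokine alone wells.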 Type of data set: functional. Conditions: Rattus norvegicus.
Data set [9] can be described thus: intracellular Trypanosoma cruzi inhibitors in host cells – cell-based, plate reader, cherry-pick samples, set 3, dose response (AID 651818).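 Note: compounds incubated with infected cells for about four days.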 Type of data set: functional.
Data set [10] deals with T5, Corticotropin-releasing factor receptor 2/Corticotropin-releasing factor-binding protein (Homo sapiens, UniProt P24387+Q13324).
T5 sequence (Q13324 whole entry): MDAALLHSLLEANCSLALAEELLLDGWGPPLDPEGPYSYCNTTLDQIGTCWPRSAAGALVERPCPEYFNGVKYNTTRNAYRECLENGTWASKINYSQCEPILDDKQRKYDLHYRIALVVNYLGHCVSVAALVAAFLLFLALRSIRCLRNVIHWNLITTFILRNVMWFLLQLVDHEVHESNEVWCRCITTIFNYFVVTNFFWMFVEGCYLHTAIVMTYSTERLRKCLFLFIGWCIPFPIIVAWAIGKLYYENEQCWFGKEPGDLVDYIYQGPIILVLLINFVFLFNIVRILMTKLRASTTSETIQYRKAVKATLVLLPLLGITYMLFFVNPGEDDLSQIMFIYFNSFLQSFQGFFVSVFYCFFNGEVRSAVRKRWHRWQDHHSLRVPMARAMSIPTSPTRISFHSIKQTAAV
T5 sequence (P24387 whole entry): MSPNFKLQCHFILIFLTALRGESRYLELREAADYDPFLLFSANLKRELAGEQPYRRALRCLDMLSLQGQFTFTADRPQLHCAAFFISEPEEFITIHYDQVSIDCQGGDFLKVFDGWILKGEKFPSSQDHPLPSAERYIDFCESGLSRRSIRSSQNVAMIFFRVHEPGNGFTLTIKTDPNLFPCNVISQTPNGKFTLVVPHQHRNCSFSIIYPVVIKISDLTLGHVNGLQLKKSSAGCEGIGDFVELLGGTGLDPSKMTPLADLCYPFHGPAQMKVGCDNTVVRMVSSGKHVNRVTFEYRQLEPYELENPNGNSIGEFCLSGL
Nature of the data set: activators of CRF receptor 2 with binding protein – uHTS hits, confirmation (AID 602473). Format: functional. To be noted: read-out: EC50_Mean.

G-protein coupled receptor 55, sequence (Q9Y2T6 whole entry): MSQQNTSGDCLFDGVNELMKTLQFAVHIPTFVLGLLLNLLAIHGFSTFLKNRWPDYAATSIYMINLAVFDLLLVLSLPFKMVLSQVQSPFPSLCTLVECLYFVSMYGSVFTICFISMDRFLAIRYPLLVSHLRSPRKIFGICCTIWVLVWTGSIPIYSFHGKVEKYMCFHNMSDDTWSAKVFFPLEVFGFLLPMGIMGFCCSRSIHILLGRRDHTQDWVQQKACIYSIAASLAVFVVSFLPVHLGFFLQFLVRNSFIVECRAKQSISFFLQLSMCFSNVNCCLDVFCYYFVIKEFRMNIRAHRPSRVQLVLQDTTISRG
T3 sequence (P11712 whole entry): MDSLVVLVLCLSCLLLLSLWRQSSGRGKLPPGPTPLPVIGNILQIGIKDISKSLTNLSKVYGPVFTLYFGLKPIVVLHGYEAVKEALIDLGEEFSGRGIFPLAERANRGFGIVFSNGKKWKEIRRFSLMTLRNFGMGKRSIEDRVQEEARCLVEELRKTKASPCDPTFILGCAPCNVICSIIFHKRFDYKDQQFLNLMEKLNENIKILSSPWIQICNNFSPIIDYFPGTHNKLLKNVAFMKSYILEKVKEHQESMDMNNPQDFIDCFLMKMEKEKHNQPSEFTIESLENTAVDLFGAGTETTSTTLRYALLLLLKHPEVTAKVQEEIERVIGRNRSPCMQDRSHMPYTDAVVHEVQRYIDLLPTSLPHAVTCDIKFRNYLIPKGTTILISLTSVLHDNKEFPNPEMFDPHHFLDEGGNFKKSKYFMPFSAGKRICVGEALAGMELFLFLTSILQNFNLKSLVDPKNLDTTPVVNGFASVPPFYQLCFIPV
Cytochrome P450 2C19, sequence (P33261 whole entry): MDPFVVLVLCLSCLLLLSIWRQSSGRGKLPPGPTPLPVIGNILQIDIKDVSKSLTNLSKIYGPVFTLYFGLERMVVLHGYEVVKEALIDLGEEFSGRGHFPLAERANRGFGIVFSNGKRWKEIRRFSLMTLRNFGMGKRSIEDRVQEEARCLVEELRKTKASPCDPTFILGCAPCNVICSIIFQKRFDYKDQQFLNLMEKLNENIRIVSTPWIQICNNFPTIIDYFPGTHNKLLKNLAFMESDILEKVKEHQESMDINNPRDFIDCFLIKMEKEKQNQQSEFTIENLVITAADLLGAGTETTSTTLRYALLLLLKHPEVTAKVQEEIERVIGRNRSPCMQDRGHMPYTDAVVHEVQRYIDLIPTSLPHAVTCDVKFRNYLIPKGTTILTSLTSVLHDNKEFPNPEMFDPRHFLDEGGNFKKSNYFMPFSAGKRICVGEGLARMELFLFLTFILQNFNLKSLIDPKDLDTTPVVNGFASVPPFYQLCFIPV
Cytochrome P450 2D6, sequence (P10635 whole entry): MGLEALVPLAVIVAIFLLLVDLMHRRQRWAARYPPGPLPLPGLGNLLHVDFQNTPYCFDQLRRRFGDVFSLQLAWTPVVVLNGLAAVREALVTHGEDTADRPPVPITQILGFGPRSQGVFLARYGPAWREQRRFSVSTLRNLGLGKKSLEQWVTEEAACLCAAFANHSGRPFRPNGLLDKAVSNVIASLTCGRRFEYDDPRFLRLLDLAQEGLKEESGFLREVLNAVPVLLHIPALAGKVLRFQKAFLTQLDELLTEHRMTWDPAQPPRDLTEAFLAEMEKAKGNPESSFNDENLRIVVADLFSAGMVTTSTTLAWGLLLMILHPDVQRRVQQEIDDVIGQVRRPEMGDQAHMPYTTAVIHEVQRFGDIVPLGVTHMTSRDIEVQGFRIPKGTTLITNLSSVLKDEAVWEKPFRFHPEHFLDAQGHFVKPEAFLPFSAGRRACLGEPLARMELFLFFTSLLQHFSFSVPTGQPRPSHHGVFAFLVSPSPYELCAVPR

In the case of `CCc1noc(C)c1C(=O)Nc1nc(-c2ccc(Cl)cc2Cl)cs1`, the EC50 in data set [1] was 3.56 µM (active).

Take `O=C(N[C@H]1CCC(=O)N([C@H](CSc2ccccc2)Cc2ccccc2)CC1)OCc1ccccc1`: in data set [1], the EC50 was 1.74 µM (active). As usually defined, the AC50 is the concentration at which the activity in the assay is half-maximal. `CCN(CC)CCCNc1nc(-n2nc(C)cc2C)nc2sc3c(c12)CC(C)(C)OC3`: in data set [2], the AC50 was > 20 µM (inactive). Turning to `CCOC(=O)c1c(C)c(C(=O)N2CCN(C(=O)c3ccco3)CC2)c(C)n1C`, the values for the concentration at half-maximal activity (AC50) on Cytochrome P450 1A2, on Cytochrome P450 2C19 (read-out: AC50) and at Cytochrome P450 2C9 [3] were 39.8 µM (inconclusive), 28.2 µM (inconclusive) and “inconclusive”, respectively. Regarding `COc1ccccc1/C=C/C(=O)c1ccc(Cl)cc1`, the results for the half-maximal activity concentration (AC50) at Cytochrome P450 3A4, on Cytochrome P450 2C9 [5] and on Cytochrome P450 2D6 were 28.2 µM (inconclusive), 22.4 µM (inconclusive) and 15.8 µM (inconclusive), respectively. Moreover, the figures for the EC50 in data set [4], in data set [1] and in data set [6] were 23.5 µM (active), 25.5 µM (inactive) and 21.8 µM (active), respectively.

As to `C[C@@]1(O)CCOC(=O)C1`, the AC50 result at Cytochrome P450 2C19 and at Cytochrome P450 2C9 [3] was “inconclusive” in each case. `O=C(/C=C/c1ccco1)Nc1scc(-c2ccccc2)c1C(=O)O`: the AC50 in data set [2] was > 20 µM (inactive). Broadly, the IC50 is the concentration at which inhibition is half-maximal. Consider `Cc1noc(C)c1CSc1nc2nncc-2c(O)n1-c1ccccc1`, for which the IC50 in data set [7] was > 80 µM (inactive). Consider `CC(=O)c1c(C)[nH]c(C(=O)OCc2cccc(Cl)c2)c1C`, for which the IC50 in data set [8] was 7.75 µM (not active). Besides, the AC50 with INS1 was 20 µM (active). In the case of `COc1ccc(NS(=O)(=O)c2cc(NC(=O)c3cc(=O)c4ccccc4o3)ccc2OC)cc1`, the IC50 in data set [7] is > 80 µM (inactive).

For the compound `CN(C)c1ccc(-c2nc(N(C)Cc3ccco3)c3ccccc3n2)cc1`, the concentration at half-maximal activity (AC50) at Cytochrome P450 2C19 (read-out: AC50) is 20 µM (inconclusive); at Cytochrome P450 2C9 [3] it was “inconclusive”. On to `COc1ccccc1CNC(=O)CCCn1c(=O)c2ccccc2n(CC(=O)NC2CCCC2)c1=O`, for which the half-maximal activity concentration (AC50) result at Cytochrome P450 2C9 [3] is listed as “inconclusive”. Consider `COCCNc1ccnc(-c2ccccc2C(F)(F)F)n1`, for which the AC50 on Cytochrome P450 1A2 is 20 µM (inconclusive); on Cytochrome P450 2C9 [3] it was “inconclusive”. Take `CC(=C\c1ccccc1)/C=C1/SC(=O)N(CCCC(=O)Nc2ccc(C(=O)O)cc2)C1=O`: in [7], the IC50 was > 80 µM (inactive). In the case of `CC(=O)Nc1ccc(Sc2ccccc2C(=O)O)cn1`, the half-maximal activity concentration (AC50) in data set [2] was 6.95 µM (active).

For the compound `CCN(CC)CCCNc1nc(CN2CCOCC2)nc2sc3c(c12)CCC3`, in [2], the AC50 is > 20 µM (inactive). On to `CCN(CC(=O)Nc1c(F)cccc1F)C(=O)c1cc([N+](=O)[O-])ccc1N1CCCCC1`, for which the IC50 in [7] is > 80 µM (inactive). On to `O=S(=O)(NCc1cc(-c2ccccc2Cl)no1)c1ccccc1`, for which the results for the AC50 on Cytochrome P450 2D6 and on Cytochrome P450 2C9 [3] were 39.8 µM (inconclusive) and “inconclusive”, respectively. Take `COc1ccc(NC(=O)Nc2cccc3c2O[C@H](CN(C)S(=O)(=O)c2ccc(F)cc2)[C@@H](C)CN([C@H](C)CO)C3=O)cc1`: the AC50 in data set [9] was 20 µM (inactive).

Take `CCOc1ccc(/C=N/OCC(=O)NC(c2ccccc2)c2ccccc2)cc1`: the EC50 in data set [10] was > 53 µM (inactive). Also, the IC50 in data set [8] is on record as 7.59 µM (not active). Regarding `C[C@@H]1CCCCO[C@H](CN(C)CC2CCCCC2)[C@@H](C)CN([C@H](C)CO)C(=O)c2cc(NC(=O)Nc3ccc4c(c3)OCO4)ccc2O1`, in [9], the AC50 was 1.96 µM (active).

In the case of `Cc1ccc(S(=O)(=O)N(C)C[C@H]2OCCCC[C@@H](C)Oc3ccc(NS(=O)(=O)c4ccc(Cl)cc4)cc3C(=O)N([C@H](C)CO)C[C@@H]2C)cc1`, in data set [9], the AC50 is 3.91 µM (active). Same read-out and setting: as for `C[C@@H]1CN([C@H](C)CO)C(=O)Cc2cc(NC(=O)Cc3ccccc3)ccc2O[C@H]1CN(C)Cc1ccc(C(F)(F)F)cc1`, the figure is 5.77 µM (active); as for `C[C@@H]1CN([C@@H](C)CO)C(=O)c2cccc(NC(=O)Nc3ccc(C(F)(F)F)cc3)c2O[C@H]1CN(C)Cc1ccc2c(c1)OCO2`, 1.34 µM (active); as for `C[C@@H]1CN([C@H](C)CO)C(=O)Cc2cc(NS(=O)(=O)c3ccc(Cl)cc3)ccc2O[C@H]1CN(C)Cc1ccc(Oc2ccccc2)cc1`, 4.56 µM (active). For `CN(C)c1cc[n+](Cc2c(Cl)cccc2Cl)cc1`, the IC50 in [7] was > 80 µM (inactive). Moreover, the half-maximal activity concentration (AC50) in the data set with INS1 is 3.85 µM (active). Consider `Nc1ccccc1S(N)(=O)=O`, for which the concentration at half-maximal activity (AC50) result on Cytochrome P450 2C9 [3] is recorded as “inconclusive”. For `COC(=O)Nc1nc2ccc(C(=O)c3ccccc3)cc2[nH]1` [MEBENDAZOLE], the AC50 entry on Cytochrome P450 2C9 [3] was “inconclusive”.

The record behind these values is ChEMBL document CHEMBL1201862, “PubChem BioAssay data set” (2004).
